Here are results for 13 compounds from patent publication EP4032896A1, “THIAZOLOPYRIMIDONES AS INHIBITORS OF DDR1/2 AND THERAPEUTIC USES THEREOF” (Fundación del Sector Público Estatal Centro Nacional de …, priority 2021, dated 2022).

The target of experiment [1] is T1, DDR1 (Homo sapiens, UniProt Q08345).
T1 construct: The enzymes were purchased as a catalytic domain GST Tag DDR1(#PR6913A); purchased ThermoFisher PR6913A
Kind of experiment: LanthaScreen Eu-Kinase Binding Assay (TR-FRET tracer displacement), DDR1. The following applies: catalytic domain GST Tag DDR1; Kinase Tracer 178. The text has this:
(§1) DDR1/2 binding assay: The binding assay relies on the LanthaScreen ™ Eu-Kinase Binding Assay (ThermoFisher Scientfic). This is a kinase assay platform based on measuring the binding and displacement of an Alexa Fluor® conjugate of an ATP-competitive kinase inhibitor or tracer at a kinase active site (Kinase Tracer 178. #PV5593). Binding of the tracer to the kinase is detected by addition of a europium (Eu)-labeled anti-GST antibody (#PV 5594) which specifically labels the kinase of interest. This binding results in a high degree of fluorescence resonance energy transfer (FRET), whereas displacement of the tracer with a kinase inhibitor results in a loss of FRET. The enzymes were purchased as a catalytic domain GST Tag DDR1(#PR6913A) and DDR2 (#PR7167A) from ThermoFisher. Assay conditions were as indicated by the kit manufacturers. Assays were performed in 384-well plates. The final read out was generated using an EnVision plate reader (Perkin-Elmer). The emission ratio was calculated by dividing the acceptor/tracer emission (665 nm) by the antibody/donor emission (615 nm). Values were plotted against the inhibitor concentration and fit to a sigmoid dose-response curve using Activity base by IDBS software.

The next experiment addresses T2, DDR2 (Homo sapiens, UniProt Q16832).
T2 construct: The enzymes were purchased as a catalytic domain GST Tag DDR1(#PR6913A) and DDR2 (#PR7167A); purchased ThermoFisher PR7167A
T2 sequence (Q16832 563-849 limits assumed): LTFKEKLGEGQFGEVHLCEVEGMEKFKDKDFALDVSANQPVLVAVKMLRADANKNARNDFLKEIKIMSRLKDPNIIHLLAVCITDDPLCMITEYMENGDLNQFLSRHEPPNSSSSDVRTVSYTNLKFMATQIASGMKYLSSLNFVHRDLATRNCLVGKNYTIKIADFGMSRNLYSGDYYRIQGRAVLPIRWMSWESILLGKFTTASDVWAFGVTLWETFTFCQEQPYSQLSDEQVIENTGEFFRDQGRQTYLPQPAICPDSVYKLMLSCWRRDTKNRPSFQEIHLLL
Kind of experiment: LanthaScreen Eu-Kinase Binding Assay (TR-FRET tracer displacement), DDR2. The following applies: catalytic domain GST Tag DDR2; Kinase Tracer 178.
Description: as §1

Experiment [2] has as its target T3, DDR1 (Mus musculus, UniProt Q03146).
T3 construct: expressed in transfected cells; host or cells: HEK293T
T3 sequence (Q03146 20-911): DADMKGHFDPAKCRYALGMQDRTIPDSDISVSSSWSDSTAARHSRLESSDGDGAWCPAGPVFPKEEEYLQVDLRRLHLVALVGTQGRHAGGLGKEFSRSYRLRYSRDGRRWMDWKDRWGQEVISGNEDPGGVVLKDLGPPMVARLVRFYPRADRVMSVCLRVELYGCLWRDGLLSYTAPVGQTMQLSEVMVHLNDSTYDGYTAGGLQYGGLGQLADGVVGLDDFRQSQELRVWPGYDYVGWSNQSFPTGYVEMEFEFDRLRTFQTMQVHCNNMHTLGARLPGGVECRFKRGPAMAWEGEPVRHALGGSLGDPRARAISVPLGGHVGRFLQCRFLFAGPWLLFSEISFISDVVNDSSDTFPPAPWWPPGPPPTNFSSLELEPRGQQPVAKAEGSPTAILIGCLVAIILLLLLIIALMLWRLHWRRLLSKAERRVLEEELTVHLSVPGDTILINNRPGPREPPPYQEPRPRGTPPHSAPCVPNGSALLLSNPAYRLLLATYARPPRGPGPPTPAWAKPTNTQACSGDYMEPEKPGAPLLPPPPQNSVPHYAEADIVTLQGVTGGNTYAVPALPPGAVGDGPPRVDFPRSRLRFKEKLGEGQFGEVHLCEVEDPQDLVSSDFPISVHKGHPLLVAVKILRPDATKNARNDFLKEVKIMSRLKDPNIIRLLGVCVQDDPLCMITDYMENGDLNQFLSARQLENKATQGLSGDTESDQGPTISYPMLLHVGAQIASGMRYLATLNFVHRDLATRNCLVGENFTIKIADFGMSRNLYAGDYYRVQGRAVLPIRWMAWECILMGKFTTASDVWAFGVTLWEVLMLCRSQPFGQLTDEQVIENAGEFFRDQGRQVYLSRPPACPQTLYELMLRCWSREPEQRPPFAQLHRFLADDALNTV
Kind of experiment: Cellular assay: inhibition of Collagen I-induced DDR1 autophosphorylation in HEK293T cells transiently transfected with DDR1 plasmid (Western blot). Type of experiment: cell-based, human. The following applies: pcDNA3.1 DDR1 WT mouse plasmid, compound 1 h, then 10 µg/mL Collagen I 1 h, P-DDR1 (Y513), read-out: pDDR1 EC50. The procedure:
DDR1/2 cellular assay: Transient transfection of HEK293T cells with DDR1 plasmid is used to study the inhibition of the autophosphorylation of DDR1 induced by Collagen I in cells. HEK293T are seeded, 6x10^5 cells per well in 6-well plates and incubated for 6 h at 37 °C, 5% CO2. Then, cells are transfected using Effectene reactive (Quiagen) with pcDNA3.1 DDR1 WT mouse plasmid. Cells are incubated with transfection complexes under normal growth conditions for 24 h. After that, medium is replaced with fresh medium and cells are incubated for an additional 18 h. Eight serial 1:3 compound dilutions are made in DMSO. The compounds are added to each well of 6 well cell plates and are incubated at 37 °C under CO2 atmosphere 1 h. DDR1's autophosphorylation is stimulated by 1h treatment with 10 µg/mL Collagen I. Then, cells are washed in PBS, lyse adding 100 µl of complete RIPA protein lysis buffer (RIPA Buffer, 1 mM DTT, 5 mM Bezamidine, 10 µg/mL Aprotinin, 10 µg/mL Leupeptin, 710 ng/mL Pepstatin A, 100 µg/mL Trypsin Inhibitor, 40 µg/mL Bestatin, completed with PhosSTOP EASYpack and complete Mini, EDTA-free) and incubated 20 minutes at 4 °C and then centrifugated. Lysates are kept at -80 °C. The protein content of the lysates is determined by DC protein assay (Biorad, Ref. 5000116). The proteins are resolved by SDS-PAGE and transferred to nitrocellulose membrane (GE Healthcare #10600003). The membranes are incubated overnight at 4 °C with antibodies specific for DDR1 (D1G6) (Cell signaling #5583), P-DDR1 (Y513) (E1N8F) (Cell Signaling # 14531) they are washed and then incubated with Alexa Fluor 680 goat anti-rabbit IgG secondary antibodies (Invitrogen, A21076). The bands are visualized and quantified using an Odyssey infrared imaging system (Li-Cor Biosciences). The percentage of DDR1 phosphorylation is finally plotted against concentration for each compound and EC50s for intracellular DDR1 inhibition are calculated using ActivityBase from IDBS.
A general note: A western blot detects proteins with antibodies after separation by electrophoresis.

The structures appear in SMILES notation. pEC50, pIC50: −log10 of the molar value.

T1 sequence (Q08345 610-905 limits assumed): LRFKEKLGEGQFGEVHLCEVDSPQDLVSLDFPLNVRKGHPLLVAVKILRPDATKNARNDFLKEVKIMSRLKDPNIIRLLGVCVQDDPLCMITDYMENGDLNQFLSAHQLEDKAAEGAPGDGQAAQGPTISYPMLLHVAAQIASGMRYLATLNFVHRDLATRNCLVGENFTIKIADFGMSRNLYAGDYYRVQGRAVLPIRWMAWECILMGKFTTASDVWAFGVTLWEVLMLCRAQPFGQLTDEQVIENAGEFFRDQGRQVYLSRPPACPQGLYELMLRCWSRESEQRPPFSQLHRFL

The term pIC50 denotes the negative decadic logarithm of the IC50, by convention in mol/L. Usually pEC50 stands for −log10 of the EC50, conventionally taken in molar units. For the compound `COc1ccc(-c2c(-c3ccnc(Nc4ccc(N5CCN(C)CC5)cc4)n3)sc3nccc(=O)n23)cc1` [Compound 54, 3-(4-Methoxy-phenyl)-2-{2-[4-(4-methyl-piperazin-1-yl)-phenylamino]-pyrimidin-4-yl}-thiazolo[3,2-a]pyrimidin-5-one], the pIC50 was 8.38 at DDR1 [1] and 7.54 on DDR2. In addition, the pEC50 on DDR1 [2] is 7.74.

Consider `CN1CCN(c2ccc(Nc3nccc(-c4sc5nccc(=O)n5c4-c4ccccc4O)n3)cc2)CC1` [Compound 55, 3-(2-Hydroxy-phenyl)-2-{2-[4-(4-methyl-piperazin-1-yl)-phenylamino]-pyrimidin-4-yl}-thiazolo[3,2-a]pyrimidin-5-one], for which the negative logarithm of the IC50 (pIC50) on DDR1 [1] was 8.64; on DDR2, 8.20. The negative-log EC50 (pEC50) at DDR1 [2] is 7.66.

As for `CN1CCN(c2ccc(Nc3nccc(-c4sc5nccc(=O)n5c4-c4cccc(O)c4)n3)cc2)CC1` [Compound 56, 3-(3-Hydroxy-phenyl)-2-{2-[4-(4-methyl-piperazin-1-yl)-phenylamino]-pyrimidin-4-yl}-thiazolo[3,2-a]pyrimidin-5-one], the results for the negative-log IC50 (pIC50) at DDR1 [1] and at DDR2 were 8.25 and 7.76, respectively. In addition, the negative logarithm of the EC50 (pEC50) on DDR1 [2] was 7.91.

With `CN1CCN(c2ccc(Nc3nccc(-c4sc5nccc(=O)n5c4-c4ccc(O)cc4)n3)cc2)CC1` [Compound 57, 3-(4-Hydroxy-phenyl)-2-{2-[4-(4-methyl-piperazin-1-yl)-phenylamino]-pyrimidin-4-yl}-thiazolo[3,2-a]pyrimidin-5-one], the results for the negative logarithm of the IC50 (pIC50) at DDR1 [1] and at DDR2 were 8.34 and 7.82, respectively. For the same compound, the pEC50 at DDR1 [2] is 7.68.

Take `O=c1ccnc2sc(-c3ccnc(Nc4cccc(N5CCN(CCO)CC5)c4)n3)c(-c3ccc(F)cc3)n12` [Compound 58, 3-(4-Fluoro-phenyl)-2-(2-{3-[4-(2-hydroxy-ethyl)-piperazin-1-yl]-phenylamino}-pyrimidin-4-yl)-thiazolo[3,2-a]pyrimidin-5-one]: the pIC50 at DDR1 [1] is 8.19; at DDR2 it was 7.52. At DDR1 [2], the pEC50 is 7.55.

Turning to `NS(=O)(=O)c1cccc(Nc2nccc(-c3sc4nccc(=O)n4c3-c3cccc(Cl)c3Cl)n2)c1` [Compound 59, 3-{4-[3-(2,3-Dichloro-phenyl)-5-oxo-5H-thiazolo[3,2-a]pyrimidin-2-yl]-pyrimidin-2-ylamino}-benzenesulfonamide], the negative logarithm of the IC50 (pIC50) at DDR1 [1] is 7.99; at DDR2 it was 7.33. Also, the pEC50 on DDR1 [2] is 7.00.

In the case of `O=c1ccnc2sc(-c3ccnc(Nc4cccc(N5CCN(CCO)CC5)c4)n3)c(-c3cccc(Cl)c3Cl)n12` [Compound 60, 3-(2,3-Dichloro-phenyl)-2-(2-{3-[4-(2-hydroxy-ethyl)-piperazin-1-yl]-phenylamino}-pyrimidin-4-yl)-thiazolo[3,2-a]pyrimidin-5-one], the negative logarithm of the IC50 (pIC50) at DDR1 [1] is 8.27; at DDR2 it was 7.74. For the same compound, at DDR1 [2], the negative logarithm of the EC50 (pEC50) is 7.50.

As to `NS(=O)(=O)c1cccc(Nc2nccc(-c3sc4nccc(=O)n4c3-c3ccc(Cl)c(Cl)c3)n2)c1` [Compound 61, 3-{4-[3-(3,4-Dichloro-phenyl)-5-oxo-5H-thiazolo[3,2-a]pyrimidin-2-yl]-pyrimidin-2-ylamino}-benzenesulfonamide], the results for the negative logarithm of the IC50 (pIC50) on DDR1 [1] and at DDR2 were 7.89 and 7.39, respectively. For the same compound, on DDR1 [2], the pEC50 is 7.20.

Regarding `COc1ccc(-c2c(-c3ccnc(Nc4cccc(N5CCN(CCO)CC5)c4)n3)sc3nccc(=O)n23)cc1Cl` [Compound 62, 3-(3-Chloro-4-methoxy-phenyl)-2-(2-{3-[4-(2-hydroxy-ethyl)-piperazin-1-yl]-phenylamino}-pyrimidin-4-yl)-thiazolo[3,2-a]pyrimidin-5-one], the pIC50 was 7.96 on DDR1 [1] and 7.27 at DDR2. The negative logarithm of the EC50 (pEC50) at DDR1 [2] is 7.08.

With `O=c1ccnc2sc(-c3ccnc(Nc4cccc(N5CCN(CCO)CC5)c4)n3)c(-c3ccc(F)c(C(F)(F)F)c3)n12` [Compound 63, 3-(4-Fluoro-3-trifluoromethyl-phenyl)-2-(2-{3-[4-(2-hydroxy-ethyl)-piperazin-1-yl]-phenylamino}-pyrimidin-4-yl)-thiazolo[3,2-a]pyrimidin-5-one], the negative logarithm of the IC50 (pIC50) at DDR1 [1] is 6.92; on DDR2 it was 6.49. Also, at DDR1 [2], the negative-log EC50 (pEC50) is 6.85.

With `CC(C)c1c(-c2ccnc(Nc3cccc(N4CCN(CCO)CC4)c3)n2)sc2nccc(=O)n12` [Compound 64, 2-(2-{3-[4-(2-Hydroxy-ethyl)-piperazin-1-yl]-phenylamino}-pyrimidin-4-yl)-3-isopropyl-thiazolo[3,2-a]pyrimidin-5-one], the pIC50 was 7.82 on DDR1 [1] and 7.04 at DDR2. Besides, on DDR1 [2], the negative logarithm of the EC50 (pEC50) was 7.23.

Regarding `O=c1ccnc2sc(-c3ccnc(Nc4cccc(N5CCN(CCO)CC5)c4)n3)c(C3CC3)n12` [Compound 65, 3-Cyclopropyl-2-(2-{3-[4-(2-hydroxy-ethyl)-piperazin-1-yl]-phenylamino}-pyrimidin-4-yl)-thiazolo[3,2-a]pyrimidin-5-one], the negative logarithm of the IC50 (pIC50) at DDR1 [1] was 6.93; at DDR2, 6.33. On DDR1 [2], the pEC50 was 6.79.

`O=c1ccnc2sc(-c3ccnc(Nc4cccc(N5CCN(CCO)CC5)c4)n3)c(C3CCOCC3)n12` [Compound 66, 2-(2-{3-[4-(2-Hydroxy-ethyl)-piperazin-1-yl]-phenylamino}-pyrimidin-4-yl)-3-(tetrahydropyran-4-yl)-thiazolo[3,2-a]pyrimidin-5-one]: the pIC50 is 6.49 on DDR1 [1] and 5.83 at DDR2. Besides, the pEC50 at DDR1 [2] was 6.21.
